Here are results for five molecules from patent publication US4061862A, “Derivatives of 7-(cyclized)phenylglycyl-3-triazolo-thio methyl cephalosporin” (priority 1976, dated 1977).

Values after ≈ are worked out from the molar mass of the structure shown. Where two headings read alike, the source gives them in different places.

Data set [1] can be described thus: Bio-assay (mcg./mg.). As for the experimental part:
7-[D-α-amino-α-(p-hydroxyphenyl)acetamido]-3-(1,2,3-triazol-5-ylthiomethyl)-3-cephem-4-carboxylic acid methanol solvate (15 g.) was slurried in 60 ml. of water. The pH was raised to 6.5 by addition of 4N NaOH and the mixture was passed through a 200 mesh screen. The reaction mixture was slurried at room temperature for 2 hours, the pH being maintained at 6.5 during this period. The crystals were removed by filtration, washed with 20 ml. of water and air dried at 37° C. for 24 hours to give 11.5 g. of title crystalline product. Bio assay = 924 mcg./mg. (average % H2 O, K.F. = 5.26).
7-[D-α-amino-α-(p-hydroxyphenyl)acetamido]-3-(1,2,3-triazol-5-ylthiomethyl)-3-cephem-4-carboxylic acid methanol solvate (200 mesh; 10.0 g.) substantially free of propylene glycol is slurried in 30-40 ml. of deionized water at ambient room temperature (20°-25° C.) to give a pH 3-4 aqueous suspension. NaOH (40%) is slowly added with rapid stirring to bring the pH to 6.3-6.7. The mixture is slurried at pH 6.3-6.7 for 2 hours. The crystals are removed by filtration, washed with water and air dried at room temperature for 24 hours to give a 75-80% weight yield of 950-1000 mcg./mg. crystals of 7-[D-α-amino-α-(p-hydroxyphenyl)acetamido]-3-(1,2,3-triazol-5-ylthiomethyl)-3-cephem-4-carboxylic acid dihydrate. […] H2 O, K.F. = 6.56.

The test system of data set [2] is Ser. marcescens A20019. Kind of data set: Antibiotic spectrum in nutrient broth, MIC. The data set is classed as cell-based. The conditions noted are these: Serratia marcescens, 10^-4 dilution, BL-S1052 adjusted for 97.5% content of BL-S640. An excerpt:
(§1) Antibiotic Spectrum in Nutrient Broth
(§2) **Dilution of overnight broth culture.
(§3) ^(1) Adjusted for 97.5% content of BL-S640. In other words, the
(§4) numerical values are lowered, i.e. improved. This adjustment was also mad
(§5) in the tests reported below or in the alternative, a larger weight was
(§6) used to provide equivalent dosage.

The test system of data set [3] is K. pneumoniae A15130. Kind of data set: Antibiotic spectrum in nutrient broth, MIC. The format is cell-based. The conditions noted are these: Klebsiella pneumoniae, 10^-4 dilution, BL-S1052 adjusted for 97.5% content of BL-S640.
Source text: as §1, §2, §3, §4, §5, §6

Data set [4] has as its system Ent. cloacae A9657. In words: Antibiotic spectrum in nutrient broth, MIC. The data set is classed as cell-based. The conditions noted are these: Enterobacter cloacae, 10^-4 dilution, BL-S1052 adjusted for 97.5% content of BL-S640.
Source text: as §1, §2, §3, §4, §5, §6

The test system of data set [5] is E. coli Juhl A15119. Kind of data set: Antibiotic spectrum in nutrient broth, MIC. The data set is classed as cell-based. The following applies: Escherichia coli, JUHLA15119; 10^-4 dilution; BL-S1052 adjusted for 97.5% content of BL-S640.
Source text: as §1, §2, §3, §4, §5, §6

The subject of data set [6] is S. aureus Meth-Res A15097. Kind of data set: Antibiotic spectrum in nutrient broth, MIC. The data set is classed as cell-based. The conditions noted are these: Staphylococcus aureus; 10^-3 dilution; BL-S1052 adjusted for 97.5% content of BL-S640.
Source text: as §1, §2, §3, §4, §5, §6

Data set [7] relates to K. pneumoniae A9977. Kind of data set: Antibiotic spectrum in nutrient broth, MIC. The data set is classed as cell-based. The conditions noted are these: Klebsiella pneumoniae, 10^-4 dilution, BL-S1052 adjusted for 97.5% content of BL-S640.
Source text: as §1, §2, §3, §4, §5, §6

Data set [8] relates to Sal. enteritidis A9531. In words: Antibiotic spectrum in nutrient broth, MIC. The conditions noted are these: Salmonella enterica, 10^-4 dilution, BL-S1052 adjusted for 97.5% content of BL-S640. The format is cell-based.
Source text: as §1, §2, §3, §4, §5, §6

Data set [9] deals with Pr. mirabilis A9900. Kind of data set: Antibiotic spectrum in nutrient broth, MIC. The format is cell-based. The conditions noted are these: Proteus mirabilis, 10^-4 dilution, BL-S1052 adjusted for 97.5% content of BL-S640.
Source text: as §1, §2, §3, §4, §5, §6

Data set [10] concerns S. aureus Smith A9537. In words: Antibiotic spectrum in nutrient broth, MIC. The data set is classed as cell-based. The following applies: Staphylococcus aureus, BL-S1052 adjusted for 97.5% content of BL-S640.
Source text: as §1, §2, §3, §4, §5, §6

The subject of data set [11] is Ent. cloacae A9656. In words: Antibiotic spectrum in nutrient broth, MIC. The conditions noted are these: Enterobacter cloacae, 10^-4 dilution, BL-S1052 adjusted for 97.5% content of BL-S640. The format is cell-based.
Source text: as §1, §2, §3, §4, §5, §6

Data set [12] relates to E. coli A9675. In words: Antibiotic spectrum in nutrient broth, MIC. The data set is classed as cell-based. The following applies: Escherichia coli, 10^-4 dilution, BL-S1052 adjusted for 97.5% content of BL-S640.
Source text: as §1, §2, §3, §4, §5, §6

Data set [13] has as its system Ps. Aeruginosa A9843A. In words: Antibiotic spectrum in nutrient broth, MIC. The format is cell-based. The conditions noted are these: Pseudomonas aeruginosa.
Source text: as §1, §2, §3, §4, §5, §6

In data set [14] the test system is S. aureus BX1633. Kind of data set: Antibiotic spectrum in nutrient broth, MIC. The data set is classed as cell-based. The following applies: Staphylococcus aureus, BL-S1052 adjusted for 97.5% content of BL-S640, read-out: MIC.
Source text: as §1, §2
(§7) This adjustment was also mad
as §5, §6

Data set [15] concerns Pr. morganii A15153. In words: Antibiotic spectrum in nutrient broth, MIC. The conditions noted are these: Morganella morganii, 10^-4 dilution, BL-S1052 adjusted for 97.5% content of BL-S640. The data set is classed as cell-based.
Source text: as §1, §2, §7, §5, §6

Data set [16] concerns Ent. cloacae A9659. Kind of data set: Antibiotic spectrum in nutrient broth, MIC. The data set is classed as cell-based. The following applies: Enterobacter cloacae, 10^-4 dilution, BL-S1052 adjusted for 97.5% content of BL-S640.
Source text: as §1, §2, §7, §5, §6

Data set [17] is described as follows: Mouse blood levels after IM administration. The data set is classed as in vivo. The conditions noted are these: IM 10 mg./kg. Here is the method: Mouse Blood Levels after IM
Administration of 10 mg./kg. Body Weight
Blood Levels (mcg./ml.)
(§8) The compounds were prepared in 0.01% phosphate buffer. BL-S640 was used a
(§9) standard for all compounds.

Data set [18] relates to Str. pyogenes A9604. Kind of data set: Antibiotic spectrum in nutrient broth, MIC. The conditions noted are these: Streptococcus pyogenes, 10^-3 dilution of overnight culture, 45% AAB + 5% serum + 50% broth, BL-S1052 adjusted for 97.5% content of BL-S640. The data set is classed as cell-based.
Source text: as §1
(§10) *45% AAB + 5% serum + 50% broth listed above.
as §2, §3, §4, §5, §6

Data set [19] has as its system S. pneumoniae A9585. In words: Antibiotic spectrum in nutrient broth, MIC. The format is cell-based. The conditions noted are these: Streptococcus pneumoniae, 10^-3 dilution of overnight culture, 45% AAB + 5% serum + 50% broth, BL-S1052 adjusted for 97.5% content of BL-S640.
Source text: as §1, §10, §2, §3, §4, §5, §6

Data set [20] in a line: Mouse blood levels after PO administration. The format is in vivo. The conditions noted are these: PO 100 mg./kg. As for the experimental part: ______________________________________
Mouse Blood Levels after PO
Administration of 100 mg./kg. Body Weight
The compounds were prepared in Tween-CMC. BL-S640 was used as standard fo

The nature of data set [21]: Paper chromatograms of rat urine for antibiotically active metabolites after IM administration. The data set is classed as in vivo. The following applies: rat urine 0-2 and 2-4 hours, paper chromatography system No. 9. As for the experimental part: Paper chromatograms were run on rat urine collected between 0 and 2 and between 2 and 4 hours, following IM administration of BL-S1052 and BL-S640, for the detection of antibiotically active metabolites using descending chromatography with system No. 9 (butyl acetate:n-butanol:glacial acetic acid:H2 O = 80:15:40:24).

A short description of data set [22]: Urinary recovery after IM administration to rats. The format is in vivo. The conditions noted are these: rat, urine, read-out: Urinary recovery, percentage of administered dose recovered; for dose excreted at 6 h: 0-6 hr. As for the experimental part:
Urinary Recovery after IM
Administration of 50 and 10 mg./kg. to Rats
as §8, §9

Data set [23] can be described thus: Loss of bioactivity on storage at elevated temperatures. The format is physicochemical. As for the experimental part:
h. Loss of bioactivity on storage at elevated temperatures: 100° C., 24 hours = <6%; 48 hours = <12%; 56° C., 1 month = <10%.

In turn, `NC(C(=O)NC1C(=O)N2C(C(=O)O)=C(CSc3c[nH]nn3)CSC12)c1ccc(O)cc1` [7-[D-α-amino-α-(p-hydroxyphenyl)acetamido]-3-(1,2,3-triazol-5-ylthiomethyl)-3-cephem-4-carboxylic acid methanol solvate] returned a Bio-assay in data set [1] of 850 to 900 µg/mg.
On to `N[C@@H](C(=O)N[C@@H]1C(=O)N2C(C(=O)O)=C(CSc3c[nH]nn3)CS[C@H]12)c1ccc(O)cc1` [BL-S640, 7-[D-α-amino-α-(p-hydroxyphenyl)acetamido]-3-(1,2,3-triazol-5-ylthiomethyl)-3-cephem-4-carboxylic acid], for which the MIC in data set [2] was over 125 µg/mL; in [3] it was 1 µg/mL (≈ 2.16 µM); in data set [4], 0.5 µg/mL (≈ 1.08 µM); in data set [5], 0.5 µg/mL (≈ 1.08 µM); in data set [6], 8 µg/mL (≈ 17.3 µM); in [7], 0.5 µg/mL (≈ 1.08 µM). In addition, the MIC in data set [8] was 0.25 µg/mL (≈ 0.541 µM); in [9] it was 0.5 µg/mL (≈ 1.08 µM); in [10] (SMITHA9537, 10^-4 dilution, nutrient broth), 0.13 µg/mL (≈ 0.281 µM); in data set [10] (SMITHA9537, +50% serum, 10^-4 dilution), 2 µg/mL (≈ 4.32 µM); in data set [11], over 125 µg/mL; in data set [12] it was 2 µg/mL (≈ 4.32 µM). In addition, the MIC in data set [13] is over 125 µg/mL; in [14] (BX1633, 10^-2 dilution, A9606) it was 4 µg/mL (≈ 8.65 µM); in [14] (BX1633, 10^-3 dilution, A9696), 0.25 µg/mL (≈ 0.541 µM); in data set [15] it was 32 µg/mL (≈ 69.2 µM); in data set [16], 32 µg/mL (≈ 69.2 µM); in data set [18] it was 0.03 µg/mL. Also, in data set [19], the MIC turned out to be 0.06 µg/mL. In data set [17] (0.25 hr), this molecule returned a concentration at 0.25 h of 15700 ng/mL. Also, the values for the concentration at 0.5 h in data set [17] (0.5 hr) and in [20] (0.5 hr) were 13200 ng/mL and 53400 ng/mL, respectively. For the same molecule, the concentration at 1 h came to 9500 ng/mL in data set [17] (1 hr) and 45400 ng/mL in [20] (1 hr). This molecule also came in with a concentration at 1.5 h in data set [17] (1.5 hr) of 6800 ng/mL. Moreover, in data set [20] (2 hr), the concentration at 2 h is 27200 ng/mL. Also, in [20] (3.5 hr), the concentration at 3.5 h amounted to 10700 ng/mL. The “Antibiotically active spots in urine” value in data set [21] is “Two spots identically located”. The dose excreted at 6 h is 24.3% in [22] (10 mg/kg, IM 10 mg./kg.) and 44.5% in data set [22] (50 mg/kg, IM 50 mg./kg.). Besides, the dose excreted at 24 h was found to be 25.7% in data set [22] (10 mg/kg, IM 10 mg./kg., 0-24 hr); 1.4% in data set [22] (10 mg/kg, IM 10 mg./kg., 6-24 hr); 47.2% in data set [22] (50 mg/kg, IM 50 mg./kg., 0-24 hr); 2.7% in [22] (50 mg/kg, IM 50 mg./kg., 6-24 hr).
`N[C@@H](C(=O)NC1C(=O)N2C(C(=O)O)=C(CSc3cnn[nH]3)CS[C@H]12)c1ccc(O)cc1.O.O` (stereo partly drawn) [7-[D-α-amino-α-(p-hydroxyphenyl)acetamido]-3-(1,2,3-triazol-5-ylthiomethyl)-3-cephem-4-carboxylic acid dihydrate] displayed a Bio-assay in data set [1] of 950 to 1000 µg/mg.
In the case of `N[C@@H](C(=O)NC1C(=O)N2C(C(=O)O)=C(CSc3c[nH]nn3)CS[C@H]12)c1ccc(O)cc1` (stereo partly drawn) [7-[D-α-amino-α-(p-hydroxyphenyl)acetamido]-3-(1,2,3-triazol-5-ylthiomethyl)-3-cephem-4-carboxylic acid sesquihydrate], the Bio-assay in [1] (sesquihydrate) is 924 µg/mg.
`NC(C(=O)NC1C(=O)N2C(C(=O)O)=C(CSc3c[nH]nn3)CSC12)c1ccc(O)cc1` [7-[D-α-amino-α-(p-hydroxyphenyl)acetamido]-3-(1,2,3-triazol-5-ylthiomethyl)-3-cephem-4-carboxylic acid propylene glycol solvate] showed a degraded at 720 h in [23] (56° C., 1 month) of under 10%. Moreover, the degraded at 24 h in data set [23] (100° C., 24 hours) was under 6%. This molecule returned a degraded at 48 h in data set [23] (100° C., 48 hours) of under 12%.
